Measurements as given in ChEMBL document CHEMBL5500393, “Discovery and Optimization of Novel SaFabI Inhibitors as Specific Therapeutic Agents for MRSA Infection” (J Med Chem, 2024).
≈ marks a conversion by molar mass, not a printed value. Calls of active or inactive are those of the source. The calls are words filed in the database; no cut-off is given here.

Columns and labels:
[1] = Hemolytic activity in sheep erythrocytes assessed as hemolysis at 256 ug/ml incubated for 1 hr by microplate reader based analysis relative to control; format: toxicity, cell-based, Ovis aries, Erythrocyte; conditions: at 256 µg/mL, read-out: Activity
[2] = system: Pseudomonas aeruginosa; assay: Antimicrobial activity against Pseudomonas aeruginosa PAO1 measured after 24 hrs by CLSI protocol based microdilution method; format: functional
[3] = Inhibition of N-terminal his 6 tagged Acinetobacter baumannii Fabi (1 to 804 residues) expressed in Escherichia coli BL21 incubated for 30 mins in presence of NADH by fluorescence based microplate reader analysis
[4] = system: Staphylococcus aureus; assay: Antimicrobial activity against […] Staphylococcus aureus NRS271 measured after 24 hrs by CLSI protocol based microdilution method; format: functional
[5] = system: HepG2; assay: Cytotoxicity against human HepG2 cells assessed as survival rate at 800 uM measured after 48 hrs by CCK-8 method relative to control; format: functional; conditions: read-out: Survival
[6] = system: Staphylococcus aureus; assay: Antimicrobial activity against […] Staphylococcus aureus ATCC33591 measured after 24 hrs by CLSI protocol based microdilution method; format: functional
[7] = system: Staphylococcus aureus; assay: Antimicrobial activity against methicillin-susceptible Staphylococcus aureus ATCC29213 measured after 24 hrs by CLSI protocol based microdilution method; format: functional
[8] = system: Staphylococcus aureus; assay: Antimicrobial activity against […] Staphylococcus aureus USA300 measured after 24 hrs by CLSI protocol based microdilution method; format: functional
[9] = target: T1, Enoyl-[acyl-carrier-protein] reductase [NADPH] FabI (Staphylococcus aureus) (UniProt Q6GI75); assay: Inhibition of N-terminal his 6 tagged Staphylococcus aureus Fabi (1 to […] residues) expressed in Escherichia coli BL21 at 10 uM incubated for 30 mins in presence of NADPH by fluorescence based microplate reader analysis relative to control
T1 sequence (whole entry): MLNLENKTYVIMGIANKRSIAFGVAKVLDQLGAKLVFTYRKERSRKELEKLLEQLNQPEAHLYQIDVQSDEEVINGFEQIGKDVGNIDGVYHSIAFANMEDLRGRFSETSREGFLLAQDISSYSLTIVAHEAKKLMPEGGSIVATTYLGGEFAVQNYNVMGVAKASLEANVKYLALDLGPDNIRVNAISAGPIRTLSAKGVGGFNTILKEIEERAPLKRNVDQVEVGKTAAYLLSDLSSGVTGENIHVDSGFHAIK

[10] = system: Acinetobacter baumannii; assay: Antimicrobial activity against Acinetobacter baumannii ATCC19606 measured after 24 hrs by CLSI protocol based microdilution method; format: functional
[11] = Hemolytic activity in sheep erythrocytes assessed as hemolysis incubated for 1 hr by microplate reader based analysis; format: toxicity, cell-based, Ovis aries, Erythrocyte
[12] = system: Staphylococcus aureus; assay: Antimicrobial activity against methicillin-susceptible Staphylococcus aureus ATCC25923 measured after 24 hrs by CLSI protocol based microdilution method; format: functional
[13] = Cytotoxicity against HEK293 cells assessed as survival rate at 400 uM measured after 48 hrs by CCK-8 method relative to control; format: toxicity, cell-based; conditions: human, read-out: Survival
[14] = system: Candida albicans; assay: Antimicrobial activity against Candida albicans SC5314 measured after 48 hrs by CLSI protocol based microdilution method; format: functional
[15] = Cytotoxicity against HEK293 cells assessed as survival rate at 800 uM measured after 48 hrs by CCK-8 method relative to control; format: toxicity, cell-based; conditions: human, read-out: Survival
[16] = system: Escherichia coli; assay: Antimicrobial activity against Escherichia coli ATCC25922 measured after 24 hrs by CLSI protocol based microdilution method; format: functional
[17] = system: Enterococcus faecium; assay: Antimicrobial activity against Enterococcus faecium ATCC19434 measured after 24 hrs by CLSI protocol based microdilution method; format: functional
[18] = system: HepG2; assay: Cytotoxicity against human HepG2 cells assessed as survival rate at 400 uM measured after 48 hrs by CCK-8 method relative to control; format: functional; conditions: read-out: Survival
[19] = system: Enterococcus faecalis; assay: Antimicrobial activity against Enterococcus faecalis ATCC29212 measured after 24 hrs by CLSI protocol based microdilution method; format: functional
[20] = Hemolytic activity in sheep erythrocytes assessed as hemolysis at 64 ug/ml incubated for 1 hr by microplate reader based analysis relative to control; format: toxicity, cell-based, Ovis aries, Erythrocyte; conditions: at 64 µg/mL, read-out: Activity
[21] = target: T2, Enoyl-[acyl-carrier-protein] reductase [NADPH] FabI (Staphylococcus aureus, UniProt Q6GI75); assay: Inhibition of N-terminal his 6 tagged Staphylococcus aureus Fabi (1 to […] residues) expressed in Escherichia coli BL21 incubated for 30 mins in presence of NADPH by fluorescence based microplate reader analysis
T2 sequence (Q6GI75 whole entry): T1 sequence (whole entry)

[22] = target: T1, Enoyl-[acyl-carrier-protein] reductase [NADPH] FabI (Staphylococcus aureus); assay: Inhibition of N-terminal his 6 tagged Staphylococcus aureus Fabi (1 to […] residues) expressed in Escherichia coli BL21 at 1 uM incubated for 30 mins in presence of NADPH by fluorescence based microplate reader analysis relative to control
[23] = system: Staphylococcus aureus; assay: Antimicrobial activity against Staphylococcus aureus measured after 24 hrs by CLSI protocol based microdilution method; format: functional
[24] = Inhibition of N-terminal his 6 tagged Escherichia coli Fabi (1 to 789 residues) expressed in Escherichia coli BL21 incubated for 30 mins in presence of NADH by fluorescence based microplate reader analysis
[25] = Selectivity index, ratio of HC50 for sheep erythrocytes to MIC for Staphylococcus aureus; format: toxicity; conditions: read-out: Selectivity Index
[26] = Hemolytic activity in sheep erythrocytes assessed as hemolysis at 128 ug/ml incubated for 1 hr by microplate reader based analysis relative to control; format: toxicity, cell-based, Ovis aries, Erythrocyte; conditions: at 128 µg/mL, read-out: Activity
[27] = system: Staphylococcus aureus; assay: Antimicrobial activity against […] Staphylococcus aureus ATCC43300 measured after 24 hrs by CLSI protocol based microdilution method; format: functional
[28] = system: Staphylococcus aureus; assay: In vivo antibacterial activity against methicilin-resistant Staphylococcus aureus ATCC33591 infected in BALB/c mouse skin infection model assessed as reduction in number of inflammatory cells at 20 mg/kg administered daily for 4 days by H and E staining based analysis; format: functional, organism-based; conditions: time 4.0 day
[29] = system: Staphylococcus aureus; assay: In vivo antibacterial activity against methicilin-resistant Staphylococcus aureus ATCC33591 infected in BALB/c mouse skin infection model assessed as decrease in lesion size at 10 mg/kg administered daily for 4 days (reference value: 43.4 mm2); format: functional; conditions: time 4 day
[30] = system: Staphylococcus aureus; assay: In vivo antibacterial activity against methicilin-resistant Staphylococcus aureus ATCC33591 infected in BALB/c mouse skin infection model assessed as reduction in area of injury at 20 mg/kg administered daily for 4 days by H and E staining based analysis; format: functional, organism-based; conditions: time 4.0 day
[31] = system: Staphylococcus aureus; assay: In vivo antibacterial activity against methicilin-resistant Staphylococcus aureus ATCC33591 infected in BALB/c mouse skin infection model assessed as restoration of cell morphology at 20 mg/kg administered daily for 4 days by H and E staining based analysis; format: functional, organism-based; conditions: time 4.0 day
[32] = system: Staphylococcus aureus; assay: Antimicrobial activity against […] Staphylococcus aureus ATCC33591 assessed as reduction in DNA content measured after 4 hrs by microplate reader based analysis; format: functional
[33] = system: Staphylococcus aureus; assay: Antimicrobial activity against […] Staphylococcus aureus ATCC33591 assessed as reduction in RNA content measured after 4 hrs by microplate reader based analysis; format: functional
[34] = target: T1, Enoyl-[acyl-carrier-protein] reductase [NADPH] FabI (Staphylococcus aureus); assay: Inhibition of N-terminal his 6 tagged Staphylococcus aureus Fabi (1 to […] residues) expressed in Escherichia coli BL21 at 2.5 uM incubated for 30 mins in presence of NADPH by fluorescence based microplate reader analysis relative to control

Cc1c(Cl)cccc1N1CC(c2nc3ccccc3n2C)CC1=O (stereo not given)
hemolysis at 1 h, 256 ug/ml [1]: 13.2%
MIC [2]: > 32 µg/mL
IC50 [3]: 0.266 µM
MIC [4]: 4 µg/mL (≈ 11.8 µM)
viability at 800 µM [5]: > 65%
MIC [6]: 2 µg/mL (≈ 5.89 µM)
MIC [7]: 2 µg/mL (≈ 5.89 µM)
MIC [8]: 4 µg/mL (≈ 11.8 µM)
inhibition [9]: 99.1%
MIC [10]: > 32 µg/mL
HC50 at 1 h [11]: > 256 µg/mL
MIC [12]: 2 µg/mL (≈ 5.89 µM)
viability at 48 h, 400 µM [13]: > 70%
MIC [14]: > 32 µg/mL
viability at 48 h, 800 µM [15]: > 65%
MIC [16]: > 32 µg/mL
MIC [17]: > 32 µg/mL
viability at 400 µM [18]: > 70%
MIC [19]: > 32 µg/mL
hemolysis at 1 h, 64 ug/ml [20]: 3.8%
IC50 [21]: 0.429 µM
inhibition [22]: 76.8%
MIC [23]: 2 µg/mL (≈ 5.89 µM)
IC50 [24]: 0.0359 µM
selectivity ratio [25]: > 64
hemolysis at 1 h, 128 ug/ml [26]: 6.9%
MIC [27]: 2 µg/mL (≈ 5.89 µM)

CC(=O)NC[C@H]1CN(c2ccc(N3CCOCC3)c(F)c2)C(=O)O1 [LINEZOLID]
Activity [28]: inactive
MIC [2]: > 32 µg/mL
MIC [4]: > 32 µg/mL
MIC [8]: 1 µg/mL (≈ 2.96 µM)
MIC [10]: > 32 µg/mL
Activity [29]: 25.7 mm2
MIC [14]: > 32 µg/mL
MIC [16]: > 32 µg/mL
Activity [30]: inactive
MIC [17]: 2 µg/mL (≈ 5.93 µM)
Activity [31]: inactive

CCn1c(C2CC(=O)N(c3cccc(Br)c3C)C2)nc2ccccc21 (stereo not given)
hemolysis at 1 h, 256 ug/ml [1]: 12.7%
MIC [2]: > 32 µg/mL
IC50 [3]: 0.266 µM
MIC [4]: 2 µg/mL (≈ 5.02 µM)
viability at 800 µM [5]: > 65%
MIC [6]: 1 µg/mL (≈ 2.51 µM)
MIC [7]: 2 µg/mL (≈ 5.02 µM)
MIC [8]: 1 µg/mL (≈ 2.51 µM)
inhibition [9]: 96.3%
MIC [10]: > 32 µg/mL
HC50 at 1 h [11]: > 256 µg/mL
MIC [12]: 2 µg/mL (≈ 5.02 µM)
viability at 48 h, 400 µM [13]: > 70%
MIC [14]: > 32 µg/mL
viability at 48 h, 800 µM [15]: > 65%
MIC [16]: > 32 µg/mL
MIC [17]: > 32 µg/mL
viability at 400 µM [18]: > 70%
MIC [19]: > 32 µg/mL
hemolysis at 1 h, 64 ug/ml [20]: 4.3%
IC50 [21]: 0.342 µM
inhibition [22]: 82.5%
MIC [23]: 1 µg/mL (≈ 2.51 µM)
IC50 [24]: 0.0359 µM
selectivity ratio [25]: > 128
hemolysis at 1 h, 128 ug/ml [26]: 7.5%
MIC [27]: 2 µg/mL (≈ 5.02 µM)

Cn1c(C2CC(=O)N(c3cccc(Cl)c3Cl)C2)nc2ccccc21 (stereo not given)
hemolysis at 1 h, 256 ug/ml [1]: 7.5%
MIC [2]: > 32 µg/mL
IC50 [3]: 0.266 µM
MIC [4]: 4 µg/mL (≈ 11.1 µM)
viability at 800 µM [5]: > 75%
MIC [6]: 4 µg/mL (≈ 11.1 µM)
MIC [7]: 2 µg/mL (≈ 5.55 µM)
MIC [8]: 2 µg/mL (≈ 5.55 µM)
inhibition [9]: 98.8%
MIC [10]: > 32 µg/mL
HC50 at 1 h [11]: > 256 µg/mL
MIC [12]: 2 µg/mL (≈ 5.55 µM)
viability at 48 h, 400 µM [13]: > 70%
MIC [14]: > 32 µg/mL
viability at 48 h, 800 µM [15]: > 75%
MIC [16]: > 32 µg/mL
MIC [17]: > 32 µg/mL
viability at 400 µM [18]: > 70%
MIC [19]: > 32 µg/mL
hemolysis at 1 h, 64 ug/ml [20]: 2.4%
IC50 [21]: 0.495 µM
inhibition [22]: 73.7%
MIC [23]: 2 µg/mL (≈ 5.55 µM)
IC50 [24]: 0.0359 µM
selectivity ratio [25]: > 64
hemolysis at 1 h, 128 ug/ml [26]: 4.3%
MIC [27]: 2 µg/mL (≈ 5.55 µM)

C[C@H]1COc2c(N3CCN(C)CC3)c(F)cc3c(=O)c(C(=O)O)cn1c23 [LEVOFLOXACIN ANHYDROUS]
MIC [32]: 1 µg/mL (≈ 2.77 µM)

CO[C@H]1/C=C/O[C@@]2(C)Oc3c(C)c(O)c4c(O)c(c(/C=N/N5CCN(C)CC5)c(O)c4c3C2=O)NC(=O)/C(C)=C\C=C\[C@H](C)[C@H](O)[C@@H](C)[C@@H](O)[C@@H](C)[C@H](OC(C)=O)[C@@H]1C [RIFAMPIN]
MIC [33]: 0.016 µg/mL (≈ 0.0194 µM)

Cc1cccc(N2CC(c3nc4ccccc4n3C)CC2=O)c1C (stereo not given)
MIC [2]: > 32 µg/mL
MIC [4]: 16 µg/mL (≈ 50.1 µM)
MIC [6]: 8 µg/mL (≈ 25 µM)
MIC [7]: 8 µg/mL (≈ 25 µM)
MIC [8]: 16 µg/mL (≈ 50.1 µM)
inhibition [9]: 95.7%
MIC [10]: > 32 µg/mL
MIC [12]: 8 µg/mL (≈ 25 µM)
inhibition [34]: 76.8%
MIC [14]: > 32 µg/mL
MIC [16]: > 32 µg/mL
MIC [17]: > 32 µg/mL
MIC [19]: > 32 µg/mL
IC50 [21]: 0.977 µM
inhibition [22]: 53.1%
MIC [27]: 16 µg/mL (≈ 50.1 µM)
